Patent US11306098B2, “Substituted pyrrolo[1,2-a]pyrazines and pyrrolo[1,2-a][1,4]diazepines as TREX1 inhibitors” (VENENUM BIODESIGN, LLC, priority 2019, dated 2022)

Assays:
human TREX1 = human TREX1 (Homo sapiens (Human), UniProt Q9NSU2); assay: TREX1 Exonuclease Assay (human enzyme); type: biochemical; details: human TREX1 0.5 nM, FAM/BHQ1-labeled DNA oligonucleotide
Procedure: (§1) The TREX1 Exonuclease assay is an exemplary in vitro assay for measuring the activity of the TREX1 inhibitors of the present invention. In this assay, TREX1 exonuclease activity was evaluated by measuring the increase in fluorescence resulting from TREX1-catalyzed removal of a quencher from the 3′ end of a FAM-labeled DNA oligonucleotide (5′FAM-CCA CGA GAG CGT-BHQ1-3′). The assay was conducted using Wild Type (WT) human or murine TREX1 enzyme constructs corresponding to amino acids 55-297 of UniProt ID Q9NSU2-1 (SEQ ID NO: 1), or amino acids 1-242 of UniProt ID Q91XB0-1 (SEQ ID NO: 2), respectively. See, e.g., Example A.
(§2) For human TREX1, the nucleotide sequence of the gene construct was codon optimized for expression in the bacterial host. The sequence was incorporated into the pMAL-c5e vector (NEB) downstream of a solubility-promoting MBP (maltose binding protein) fusion partner. The fusion protein product was expressed in E. coli strain BL21 (DE3) (Millipore) and purified in a series of chromatographic steps. Initial steps were conducted using a dextrin sepharose affinity column followed by a Q-sepharose ion exchange column (both GE Healthcare). After the second column the MBP partner was removed by incubation with enterokinase (NEB). Further purification was carried out with the second application of a Q-sepharose column followed by a Superdex 75 (GE Healthcare) size exclusion column. Finally, a heparin sepharose column (GE Healthcare) was applied to remove contaminating nucleotides. Similar methods were used in the preparation of the murine TREX1 enzyme and are described in Example B set forth below.
(§3) To evaluate the effect of compounds on TREX1 activity, test compounds were serially diluted (11-point, 3-fold) from 10 mM stock solutions and delivered to 384-well low-volume assay plates in 80 nL DMSO using an acoustic dispenser. Next, 4 μL of human TREX1 (0.5 nM), or murine TREX1 (1 nM), diluted in assay buffer (20 mM Tris pH 7.5, 5 mM MgCl2, 100 μg/mL BSA, 0.002% Triton X-100, 2 mM DTT), was added to the assay plate. After incubating for 30 minutes, 4 μL of labeled DNA oligonucleotide (500 nM) in assay buffer was added to initiate TREX1 exonuclease activity. The reaction was allowed to proceed for 45 minutes at room temperature prior to the addition of 4 μL of 150 mM EDTA to halt TREX1 activity. Assay plates were equilibrated for an additional 30 minutes and read on an EnVision Plate Reader (Perkin Elmer) to measure fluorescence emission at 535 nm following excitation at 485 nm. Fluorescence was plotted as a function of log molar compound concentration and fit to four-parameter dose-response equation to determine compound IC50.

murine TREX1 = murine TREX1 (Mus musculus (Mouse), UniProt Q91XB0); assay: TREX1 Exonuclease Assay (murine enzyme); type: biochemical; details: murine TREX1 1 nM, FAM/BHQ1-labeled DNA oligonucleotide
Procedure: as §1, §2, §3

cleaved mouse TREX1 = cleaved mouse TREX1 (Mus musculus (Mouse), UniProt Q91XB0); assay: TREX1 Thermal Shift Binding Assay (mouse); details: PBS, 100 μM compound, 5 μM TREX1; read-out: Thermal shift cleaved mouse TREX1, (ΔTm ° C.) PBS
Procedure: Example B is a protein thermal shift assay used to assess the binding of TREX1 inhibitors to TREX1 protein. In this assay, TREX1 protein unfolding with increasing temperature was measured in the presence and absence of TREX1 inhibitors by following the increase in fluorescence of a thiol-reactive dye (e.g BODIPY FL-cystine) as it reacts with exposed TREX1 cysteine residues. The assay was conducted using human (SEQ ID NO: 1), or murine (SEQ ID NO: 2) TREX1 protein constructs.
The thermal shift assays used recombinant protein corresponding to human (SEQ ID NO: 1) and murine (SEQ ID NO: 2) TREX1. The protein encoding plasmid contained a N-terminal MBP (maltose binding protein) tag followed by the TREX1 coding sequence within the pMAL-c5E vector. The plasmid was transfected into a BL21 (DE3) E. coli expression strain. Protein was purified from the bacterial lysate using an Amylose resin column. The MBP tag was cleaved from the purified protein using recombinant enterokinase (EMD Millipore #69066-3). The cleaved TREX1 protein was further purified on a Q-Sepharose column followed by a heparin column.
Binding of compounds to both human and murine TREX1 were measured by protein thermal shift assays. (Huynh K, Partch C L. Current Protocols in Protein Science: Analysis of protein stability and ligand interactions by thermal shift assay. Current protocols in protein science/editorial board, John E Coligan. [et al]. 2015; 79:28.9.1-28.9.14. doi:10.1002/0471140864.ps2809s79.). Thermal shift assays were conducted in sealed 96-well PCR plates containing 5 μM TREX1 protein, 100 μM compound, and 2 μM BODIPY FL-cystine (Sigma) in either 20 μL assay buffer (20 mM Tris, 7.5, 5 mM MgCl2, 0.002% Triton X-100) or 20 μL phosphate buffered saline (PBS). Using a RT-qPCR machine (Mx3005P, Stratagene) changes in fluorescence (excitation at 492 nm and emission at 516 nm) were monitored as temperature was increased from 25° C. to 96° C. at a rate of 1° C. every 2 minutes. Tm values were calculated from the first derivative plot of fluorescence intensity versus temperature. The results shown in Table 6 indicate the examples bind to human TREX1 and murine TREX1. ND indicates assay was not done.

Chain of murine TREX1 (Q91XB0 1-242): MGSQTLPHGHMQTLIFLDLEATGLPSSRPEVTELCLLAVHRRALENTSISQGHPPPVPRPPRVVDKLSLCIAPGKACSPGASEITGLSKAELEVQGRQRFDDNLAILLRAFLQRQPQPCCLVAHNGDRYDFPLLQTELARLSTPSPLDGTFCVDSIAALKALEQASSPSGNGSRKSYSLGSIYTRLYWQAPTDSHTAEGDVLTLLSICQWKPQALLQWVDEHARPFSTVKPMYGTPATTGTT
Chain of cleaved mouse TREX1 (Q91XB0 1-242): as above
Chain of human TREX1 (Q9NSU2 1-242): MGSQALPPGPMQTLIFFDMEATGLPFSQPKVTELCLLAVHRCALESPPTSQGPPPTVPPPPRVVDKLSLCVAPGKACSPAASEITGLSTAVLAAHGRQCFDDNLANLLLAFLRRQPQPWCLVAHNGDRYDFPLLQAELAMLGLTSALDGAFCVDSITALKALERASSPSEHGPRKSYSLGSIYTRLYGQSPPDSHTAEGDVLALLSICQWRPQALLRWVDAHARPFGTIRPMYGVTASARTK

SMILES: N[C@@H]1C[C@H]2C(=O)N([C@H](CCC(=O)O)C(=O)NCc3ccc(Cl)c(Cl)c3)CCC(CCc3ccccc3)N2C1 (stereo partly drawn) [Example 14B]
- IC50 (human TREX1): < 1000 nM
- IC50 (murine TREX1): < 1000 nM
- ΔTm at 100 µM (cleaved mouse TREX1): > 8 °C
